Patent US5672715A, “Herbicidal substituted 3-aryl-pyrazoles” (Monsanto Company, priority 1995, dated 1997)
Read-outs that look alike come from different tables or passages of the source.

Experiments:
Format in all cases: in vivo
Barnyardgrass [1] = test: pre-emergence herbicide test; conditions: Echinochloa crus-galli, pre-emergence, read-out: % plant inhibition
Summary of the method: (§1)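 Pans of compacted topsoil received seeds and then a cover layer treated with test compound from an acetone or water carrier. Plants grew under greenhouse conditions with moisture supplied from below. Observations of % inhibition followed roughly 14 days after treatment.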

Cocklebur [2] = test: pre-emergence herbicide test
Summary of the method: as §1

Corn = test: pre-emergence herbicide test
Summary of the method: as §1

Morning Glory = test: pre-emergence herbicide test
Summary of the method: as §1

Rice = test: pre-emergence herbicide test; conditions: Oryza sativa, read-out: % plant inhibition
Summary of the method: as §1

Soybean [3] = test: pre-emergence herbicide test; conditions: Glycine max, pre-emergence, read-out: % plant inhibition
Summary of the method: as §1

Velvetleaf = test: pre-emergence herbicide test
Summary of the method: as §1

Yellow Foxtail = test: pre-emergence herbicide test; conditions: Setaria, read-out: % plant inhibition
Summary of the method: as §1

Yellow Nutsedge = test: pre-emergence herbicide test; conditions: Cyperus, read-out: % plant inhibition
Summary of the method: as §1

Barnyardgrass [4] = test: post-emergence herbicide test; conditions: Echinochloa crus-galli, post-emergence, read-out: % plant inhibition
Summary of the method: (§2)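 Each pan is moved to a spraying chamber when plants are two to three weeks old and sprayed by atomizer at 10 psig, delivering 1870 L/Ha containing about 0.4% by volume emulsifier. Greenhouse-grown from seed; percent inhibition scored.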

Bedstraw Catchweed = test: post-emergence herbicide test
Summary of the method: as §2

Blackgrass = test: post-emergence herbicide test; conditions: Alopecurus myosuroides, post-emergence, read-out: % plant inhibition; for inhibition at 7.95803 g/ha: 0.0071 lb/A; for inhibition at 40.0143 g/ha: 0.0357 lb/A; for inhibition at 1000.92 g/ha: 0.893 lb/A; for inhibition at 5043.82 g/ha: 4.5 lb/A
Summary of the method: as §2

Cocklebur [5] = test: post-emergence herbicide test; conditions: Xanthium strumarium, post-emergence, read-out: % plant inhibition
Summary of the method: as §2

Soybean [6] = test: post-emergence herbicide test
Summary of the method: as §2

Wheat = test: post-emergence herbicide test
Summary of the method: as §2

Question: Which inhibition at 40.0143 g/ha (Barnyardgrass [1]; 0.0357 lb/A) does the source give for `Cc1c(-c2cc(F)c([N+](=O)[O-])cc2F)nn(C)c1C(F)(F)F` [Compound 35] here?
Answer: 0%

Question: And the inhibition at 200.072 g/ha (Barnyardgrass [1]; 0.1785 lb/A)?
Answer: 0%

Question: And the inhibition at 5043.82 g/ha (Barnyardgrass [1]; 4.5 lb/A)?
Answer: 95%

Question: What about the “% plant inhibition” value (Cocklebur [2]; 0.893 lb/A) of the same molecule?
Answer: 35%

Question: What about the inhibition at 40.0143 g/ha (Cocklebur [2]; Xanthium strumarium, pre-emergence, 0.0357 lb/A, read-out: % plant inhibition) of the same molecule?
Answer: 0%

Question: What about the inhibition at 1000.92 g/ha (Cocklebur [2]; Xanthium strumarium, pre-emergence, 0.893 lb/A, read-out: % plant inhibition) of the same molecule?
Answer: 55%

Question: What about the inhibition at 5043.82 g/ha (Cocklebur [2]; Xanthium strumarium, pre-emergence, 4.5 lb/A, read-out: % plant inhibition) of the same molecule?
Answer: 90%

Question: And the “% plant inhibition” value (Corn; 0.1785 lb/A)?
Answer: 5%

Question: What about the inhibition at 40.0143 g/ha (Corn; Zea mays, pre-emergence, 0.0357 lb/A, read-out: % plant inhibition) of the same molecule?
Answer: 0%

Question: What about the inhibition at 5043.82 g/ha (Corn; Zea mays, pre-emergence, 4.5 lb/A, read-out: % plant inhibition) of the same molecule?
Answer: 55%

Question: And the “% plant inhibition” value (Morning Glory; 0.893 lb/A)?
Answer: 80%

Question: What about the inhibition at 40.0143 g/ha (Morning Glory; Ipomoea, pre-emergence, 0.0357 lb/A, read-out: % plant inhibition) of the same molecule?
Answer: 0%

Question: And the inhibition at 1000.92 g/ha (Morning Glory; Ipomoea, pre-emergence, 0.893 lb/A, read-out: % plant inhibition)?
Answer: 85%

Question: And the inhibition at 5043.82 g/ha (Morning Glory; Ipomoea, pre-emergence, 4.5 lb/A, read-out: % plant inhibition)?
Answer: 85%

Question: What about the inhibition at 40.0143 g/ha (Rice; 0.0357 lb/A) of the same molecule?
Answer: 0%

Question: And the inhibition at 5043.82 g/ha (Rice; 4.5 lb/A)?
Answer: 0%

Question: What about the inhibition at 40.0143 g/ha (Soybean [3]; 0.0357 lb/A) of the same molecule?
Answer: 0%

Question: What about the inhibition at 200.072 g/ha (Soybean [3]; 0.1785 lb/A) of the same molecule?
Answer: 0%

Question: And the inhibition at 1000.92 g/ha (Soybean [3]; 0.893 lb/A)?
Answer: 40%

Question: And the inhibition at 5043.82 g/ha (Soybean [3]; 4.5 lb/A)?
Answer: 55%

Question: And the “% plant inhibition” value (Velvetleaf; 0.893 lb/A)?
Answer: 98%

Question: And the inhibition at 40.0143 g/ha (Velvetleaf; Abutilon theophrasti, pre-emergence, 0.0357 lb/A, read-out: % plant inhibition)?
Answer: 0%

Question: And the inhibition at 1000.92 g/ha (Velvetleaf; Abutilon theophrasti, pre-emergence, 0.893 lb/A, read-out: % plant inhibition)?
Answer: 100%

Question: And the inhibition at 5043.82 g/ha (Velvetleaf; Abutilon theophrasti, pre-emergence, 4.5 lb/A, read-out: % plant inhibition)?
Answer: 100%

Question: And the inhibition at 40.0143 g/ha (Yellow Foxtail; 0.0357 lb/A)?
Answer: 0%

Question: What about the inhibition at 200.072 g/ha (Yellow Foxtail; 0.1785 lb/A) of the same molecule?
Answer: 0%

Question: And the inhibition at 1000.92 g/ha (Yellow Foxtail; 0.893 lb/A)?
Answer: 35%

Question: And the inhibition at 5043.82 g/ha (Yellow Foxtail; 4.5 lb/A)?
Answer: 80%

Question: And the inhibition at 40.0143 g/ha (Yellow Nutsedge; 0.0357 lb/A)?
Answer: 0%

Question: What about the inhibition at 200.072 g/ha (Yellow Nutsedge; 0.1785 lb/A) of the same molecule?
Answer: 0%

Question: And the inhibition at 5043.82 g/ha (Yellow Nutsedge; 4.5 lb/A)?
Answer: 30%

Question: What about the inhibition at 7.95803 g/ha (Barnyardgrass [4]; 0.0071 lb/A) of the same molecule?
Answer: 0%

Question: What about the inhibition at 40.0143 g/ha (Barnyardgrass [4]; 0.0357 lb/A) of the same molecule?
Answer: 0%

Question: And the inhibition at 200.072 g/ha (Barnyardgrass [4]; 0.1785 lb/A)?
Answer: 0%

Question: And the inhibition at 5043.82 g/ha (Barnyardgrass [4]; 4.5 lb/A)?
Answer: 65%

Question: What about the “% plant inhibition” value (Bedstraw Catchweed; 0.893 lb/A) of the same molecule?
Answer: 95%

Question: And the inhibition at 7.95803 g/ha (Bedstraw Catchweed; Galium aparine, post-emergence, 0.0071 lb/A, read-out: % plant inhibition)?
Answer: 0%

Question: What about the inhibition at 40.0143 g/ha (Bedstraw Catchweed; Galium aparine, post-emergence, 0.0357 lb/A, read-out: % plant inhibition) of the same molecule?
Answer: 25%

Question: And the inhibition at 1000.92 g/ha (Bedstraw Catchweed; Galium aparine, post-emergence, 0.893 lb/A, read-out: % plant inhibition)?
Answer: 75%

Question: What about the inhibition at 5043.82 g/ha (Bedstraw Catchweed; Galium aparine, post-emergence, 4.5 lb/A, read-out: % plant inhibition) of the same molecule?
Answer: 85%

Question: And the inhibition at 7.95803 g/ha (Blackgrass; Table 4a)?
Answer: 0%

Question: And the inhibition at 7.95803 g/ha (Blackgrass; Table 5a)?
Answer: 0%

Question: And the inhibition at 40.0143 g/ha (Blackgrass; Table 4a)?
Answer: 0%

Question: What about the inhibition at 40.0143 g/ha (Blackgrass; Table 5a) of the same molecule?
Answer: 0%

Question: What about the inhibition (Blackgrass; 0.1725 lb/A, Table 4a) of the same molecule?
Answer: 0%

Question: And the inhibition at 200.072 g/ha (Blackgrass; 0.1785 lb/A, Table 4a)?
Answer: 0%

Question: What about the inhibition at 1000.92 g/ha (Blackgrass; Table 4a) of the same molecule?
Answer: 0%

Question: And the inhibition at 1000.92 g/ha (Blackgrass; Table 5a)?
Answer: 35%

Question: And the inhibition at 5043.82 g/ha (Blackgrass; Table 4a)?
Answer: 0%

Question: What about the inhibition at 5043.82 g/ha (Blackgrass; Table 5a) of the same molecule?
Answer: 45%

Question: What about the inhibition at 7.95803 g/ha (Cocklebur [5]; 0.0071 lb/A) of the same molecule?
Answer: 0%

Question: And the inhibition at 40.0143 g/ha (Cocklebur [5]; 0.0357 lb/A)?
Answer: 0%

Question: And the inhibition (Cocklebur [5]; 0.1725 lb/A)?
Answer: 0%

Question: And the inhibition at 200.072 g/ha (Cocklebur [5]; 0.1785 lb/A)?
Answer: 0%

Question: And the inhibition at 5043.82 g/ha (Cocklebur [5]; 4.5 lb/A)?
Answer: 90%

Question: What about the “% plant inhibition” value (Soybean [6]; 0.893 lb/A) of the same molecule?
Answer: 30%

Question: What about the inhibition at 7.95803 g/ha (Soybean [6]; Glycine max, post-emergence, 0.0071 lb/A, read-out: % plant inhibition) of the same molecule?
Answer: 0%

Question: And the inhibition at 40.0143 g/ha (Soybean [6]; Glycine max, post-emergence, 0.0357 lb/A, read-out: % plant inhibition)?
Answer: 0%

Question: What about the inhibition (Soybean [6]; Glycine max, post-emergence, 0.1725 lb/A, read-out: % plant inhibition) of the same molecule?
Answer: 20%

Question: And the inhibition at 200.072 g/ha (Soybean [6]; Glycine max, post-emergence, 0.1785 lb/A, read-out: % plant inhibition)?
Answer: 25%

Question: What about the inhibition at 5043.82 g/ha (Soybean [6]; Glycine max, post-emergence, 4.5 lb/A, read-out: % plant inhibition) of the same molecule?
Answer: 55%

Question: And the “% plant inhibition” value (Wheat; 0.1785 lb/A)?
Answer: 5%

Question: And the “% plant inhibition” value (Wheat; 0.893 lb/A)?
Answer: 15%

Question: What about the inhibition at 7.95803 g/ha (Wheat; Triticum aestivum, post-emergence, 0.0071 lb/A, read-out: % plant inhibition) of the same molecule?
Answer: 0%

Question: What about the inhibition at 40.0143 g/ha (Wheat; Triticum aestivum, post-emergence, 0.0357 lb/A, read-out: % plant inhibition) of the same molecule?
Answer: 0%

Question: What about the inhibition at 1000.92 g/ha (Wheat; Triticum aestivum, post-emergence, 0.893 lb/A, read-out: % plant inhibition) of the same molecule?
Answer: 20%

Question: And the inhibition at 5043.82 g/ha (Wheat; Triticum aestivum, post-emergence, 4.5 lb/A, read-out: % plant inhibition)?
Answer: 25%
